Assay results published in article PMC12466757, “1,5-Diarylidene-4-Piperidones as Promising Antifungal Candidates Against Cryptococcus neoformans” (Antibiotics, 2025).
Converted amounts (≈) assume the structure as drawn.

How the values were obtained:
[1] = system: Cryptococcus neoformans (DSM11959); assay: MIC assay against C. neoformans; assay type: cell-based; conditions: lowest concentration totally inhibiting growth, 35 °C, 24–48 h
[2] = system: various human cells, i.e., A498, BEAS-2B, Caco-2, HaCaT, and HepG2
[3] = in vitro; conditions: human, Caco-2
[4] = system: Trichophyton rubrum (DSM16111); assay: MIC assay, filamentous fungus T. rubrum; assay type: cell-based; conditions: DSM16111, human pathogen, 35 °C, 24–48 h
[5] = system: Candida auris (DSM 21092); assay: MIC assay, pathogenic yeast C. auris; assay type: cell-based; conditions: Candidozyma auris, DSM21092, 35 °C, 24–48 h
[6] = system: Candida tropicalis (DSM 9419); assay: MIC assay, pathogenic yeast C. tropicalis; assay type: cell-based; conditions: DSM9419, 35 °C, 24–48 h
[7] = system: Microdochium bolleyi (DSM 62073); assay: MIC assay, filamentous fungus M. bolleyi; assay type: cell-based; conditions: 48–72 h
[8] = system: A. fumigatus (DSM 819); assay: MIC assay, filamentous fungus A. fumigatus; assay type: cell-based; conditions: Aspergillus fumigatus, DSM819; DSM 819, human pathogen; 35 °C, 24–48 h
[9] = system: Aspergillus flavus (DSM 1959); assay: MIC assay, filamentous fungus A. flavus; assay type: cell-based; conditions: DSM1959, DSM 1959, plant pathogen, 25 °C, 48–72 h
[10] = system: Candida albicans (DSM 10697); assay: MIC assay, pathogenic yeast C. albicans; assay type: cell-based; conditions: DSM10697, 35 °C, 24–48 h
[11] = system: Candida glabrata (DSM 11226); assay: MIC assay, pathogenic yeast C. glabrata; assay type: cell-based; conditions: Nakaseomyces glabratus, DSM11226, 35 °C, 24–48 h
[12] = system: Magnaporthe oryzae; assay: microbe, parasite or virus in culture; assay type: cell-based; conditions: Pyricularia oryzae, read-out: MIC M. oryzae
[13] = system: Fusarium graminearum (DSM 1095); assay: microbe, parasite or virus in culture; assay type: cell-based; conditions: DSM1095, read-out: MIC F. graminearum
[14] = system: Colletotrichum graminicola (DSM 63127); assay: MIC assay, filamentous fungus C. graminicola; assay type: cell-based; conditions: DSM63127, DSM 63127, plant pathogen, 25 °C, 48–72 h
[15] = system: Penicillium verrucosum (DSM 12639); assay: MIC assay, filamentous fungus P. verrucosum; assay type: cell-based; conditions: DSM12639, DSM 12639, plant pathogen, 25 °C, 48–72 h
[16] = system: Staphylococcus aureus (ATCC 6538); assay: Antibacterial liquid MIC determination, S. aureus; assay type: cell-based; conditions: ATCC6538, Gram-positive
[17] = in vitro; conditions: human
[18] = in vitro; conditions: human; remark: listed apart in the source
[19] = in vitro; conditions: human; remark: listed apart in the source
[20] = in vitro; conditions: human; remark: listed apart in the source
[21] = in vitro; conditions: human; remark: listed apart in the source
[22] = Cytotoxicity, resazurin cell viability assay, Caco-2; conditions: human
[23] = Cytotoxicity, resazurin cell viability assay, HaCaT; conditions: human, HaCaT skin cells
[24] = Cytotoxicity, resazurin cell viability assay, A498; conditions: human, A498 kidney cells
[25] = Cytotoxicity, resazurin cell viability assay, HepG2; conditions: human, HepG2 liver cells
[26] = Cytotoxicity, resazurin cell viability assay, BEAS-2B; conditions: human, BEAS-2B airway epithelial cells
[27] = Cryptococcus neoformans, DSM11959, C. neoformans DSM 11959
[28] = DSM62073, DSM 62073, plant pathogen, 25 °C

CCCCOc1ccc(/C=C2/C(=O)/C(=C/c3ccc(OCCCC)cc3OCCCC)C3CCC2N3C)c(OCCCC)c1 [2n]
MIC [1, 27]: > 250 µM

CCCCOc1ccc(/C=C2\CN(Cc3ccccc3)C/C(=C\c3ccc(OCCCC)cc3)C2=O)cc1 [2o]
CC50 (range depending on the cell model) [2]: 64.9 to >1000
MIC [1, 27]: 125 µM (≈ 63.7 µg/mL)
CC50 at 48 h [3]: 455 µM

COc1ccc(/C=C2\CN(Cc3ccccc3)C/C(=C\c3ccc(OC)cc3OC)C2=O)c(OC)c1 [3a]
MIC ([1]; C. neoformans DSM 11959): >250 µM
MIC [1, 27]: > 250 µM

CCCCOc1ccc(/C=C2\CN(Cc3ccccc3)C/C(=C\c3ccc(OCCCC)cc3OCCCC)C2=O)c(OCCCC)c1 [3h]
MIC [4]: 7.8 µM (≈ 5.1 µg/mL)
MIC [5]: 7.8 µM (≈ 5.1 µg/mL)
MIC [6]: 125 µM (≈ 81.7 µg/mL)
MIC ([7]; DSM62073, 25 °C): 7.8 µM (≈ 5.1 µg/mL)
MIC [7, 28]: 31.2 µM (≈ 20.4 µg/mL)
MIC [8]: 31.2 µM (≈ 20.4 µg/mL)
MIC [9]: 31.2 µM (≈ 20.4 µg/mL)
MIC [10]: 62.5 µM (≈ 40.9 µg/mL)
MIC [1, 27]: 7.8 µM (≈ 5.1 µg/mL)
MIC [11]: 7.8 µM (≈ 5.1 µg/mL)
MIC [12]: 7.8 µM (≈ 5.1 µg/mL)
MIC [13]: 125 µM (≈ 81.7 µg/mL)
MIC [14]: 250 µM (≈ 163 µg/mL)
MIC [15]: 62.5 µM (≈ 40.9 µg/mL)
CC50 at 48 h [3]: 629 µM

CCCCOc1ccc(/C=C2\CN(Cc3ccccc3)C/C(=C\c3ccc(OCCCC)c(OCCCC)c3)C2=O)cc1OCCCC [3iso-h]
MIC [4]: 125 µM (≈ 81.7 µg/mL)
MIC [5]: 31.2 µM (≈ 20.4 µg/mL)
MIC [6]: 125 µM (≈ 81.7 µg/mL)
MIC [7, 28]: 62.5 µM (≈ 40.9 µg/mL)
MIC [8]: 125 µM (≈ 81.7 µg/mL)
MIC [9]: > 250 µM
MIC [10]: 250 µM (≈ 163 µg/mL)
MIC [1, 27]: 62.5 µM (≈ 40.9 µg/mL)
MIC [11]: 62.5 µM (≈ 40.9 µg/mL)
MIC [12]: 15.6 µM (≈ 10.2 µg/mL)
MIC [13]: > 250 µM
MIC [14]: 125 µM (≈ 81.7 µg/mL)
MIC [15]: 125 µM (≈ 81.7 µg/mL)
CC50 at 48 h [3]: > 1000 µM

O=C1/C(=C/c2ccc[nH]2)CN(Cc2ccccc2)C/C1=C\c1ccc[nH]1 [3j]
MIC [1, 27]: 62.5 µM (≈ 21.5 µg/mL)
MIC [16]: 250 µM (≈ 85.9 µg/mL)
CC50 at 48 h [3]: 26.1 µM

CCCCOc1ccc(/C=C2\CN(C3CC3)C/C(=C\c3ccc(OCCCC)cc3OCCCC)C2=O)c(OCCCC)c1 [4h]
CC50 at 48 h [17]: > 1000 µM
CC50 at 48 h [18]: > 1000 µM
CC50 at 48 h [19]: > 1000 µM
CC50 at 48 h [20]: > 1000 µM
CC50 at 48 h [21]: > 1000 µM
MIC [1, 27]: 250 µM (≈ 151 µg/mL)
CC50 at 48 h [3]: > 1000 µM

CCCCOc1ccc(/C=C2\CN(C(=O)OC(C)(C)C)C/C(=C\c3ccc(OCCCC)cc3OCCCC)C2=O)c(OCCCC)c1 [5h]
MIC ([1]; C. neoformans DSM 11959): >250 µM
MIC [1, 27]: > 250 µM

CCCCOc1ccc(/C=C2\CN(S(C)(=O)=O)C/C(=C\c3ccc(OCCCC)cc3OCCCC)C2=O)c(OCCCC)c1 [6h]
MIC ([1]; C. neoformans DSM 11959): >250 µM
MIC [1, 27]: > 250 µM

CCCCOc1ccc(/C=C2\CN(C(=O)OCc3ccccc3)C/C(=C\c3ccc(OCCCC)cc3OCCCC)C2=O)c(OCCCC)c1 [7h]
MIC ([1]; C. neoformans DSM 11959): >250 µM
MIC [1, 27]: > 250 µM

CCCCOc1ccc(/C=C2\CCC/C(=C\c3ccc(OCCCC)cc3OCCCC)C2=O)c(OCCCC)c1 [8h]
MIC ([1]; C. neoformans DSM 11959): >250 µM
MIC [1, 27]: > 250 µM

CCCCOc1ccc(/C=C2\CC(C)C/C(=C\c3ccc(OCCCC)cc3OCCCC)C2=O)c(OCCCC)c1 (centres unmarked) [9h]
MIC [1, 27]: > 250 µM

CCCCOc1ccc(/C=C2\CC(C(C)(C)C)C/C(=C\c3ccc(OCCCC)cc3OCCCC)C2=O)c(OCCCC)c1 (centres unmarked) [10h]
MIC [1, 27]: > 250 µM

OC(Cn1cncn1)(Cn1cncn1)c1ccc(F)cc1F [Fluconazole, reference compound]
MIC [4]: > 1000 µM
CC50 (range depending on the cell model) [2]: 841.2 to >1000
CC50 at 48 h [22]: 977 µM
CC50 at 48 h [23]: 841 µM
MIC [5]: 500 µM (≈ 153 µg/mL)
MIC [6]: 1000 µM (≈ 306 µg/mL)
MIC [7, 28]: > 1000 µM
MIC [8]: > 1000 µM
CC50 at 48 h [24]: 994 µM
MIC [9]: > 1000 µM
CC50 at 48 h [25]: > 1000 µM
MIC [10]: 6.25 µM (≈ 1.91 µg/mL)
CC50 at 48 h [26]: 942 µM
MIC [1, 27]: 25 µM (≈ 7.66 µg/mL)
MIC [11]: 250 µM (≈ 76.6 µg/mL)
MIC [12]: 12.5 µM (≈ 3.83 µg/mL)
MIC [13]: > 1000 µM
MIC [14]: 50 µM (≈ 15.3 µg/mL)
MIC [15]: > 1000 µM
